According to ChEMBL document CHEMBL1955859, “Molecular modeling study of cyclic pentapeptide CXCR4 antagonists: new insight into CXCR4-FC131 interactions” (Bioorg Med Chem Lett, 2012):
pIC50: −log10 of the molar value.

Biological target: C-X-C chemokine receptor type 4 (Homo sapiens, UniProt P61073)
Assay: Antagonist activity at CXCR4
Type: functional

C-X-C chemokine receptor type 4, sequence (P61073 whole entry): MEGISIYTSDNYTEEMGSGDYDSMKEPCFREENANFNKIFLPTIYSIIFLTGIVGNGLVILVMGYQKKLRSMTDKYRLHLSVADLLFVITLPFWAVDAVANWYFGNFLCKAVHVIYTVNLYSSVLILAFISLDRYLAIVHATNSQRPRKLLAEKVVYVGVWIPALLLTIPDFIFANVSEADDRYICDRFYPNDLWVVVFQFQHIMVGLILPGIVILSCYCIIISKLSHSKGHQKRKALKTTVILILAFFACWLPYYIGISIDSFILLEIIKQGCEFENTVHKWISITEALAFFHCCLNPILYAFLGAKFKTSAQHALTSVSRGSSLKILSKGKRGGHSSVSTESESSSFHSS

SMILES: NC(N)=NCCC[C@@H]1NC(=O)[C@H](CCCN=C(N)N)NC(=O)[C@@H](Cc2ccccc2)NC(=O)CNC(=O)[C@H](Cc2ccc3ccccc3c2)NC1=O
- pIC50: 7.29
